Test results as given in patent US9499553B2 (CHUGAI SEIYAKU KABUSHIKI KAISHA, priority 2013, dated 2016).

target: T1, human NaPi-IIb (Homo sapiens, UniProt O95436); experiment: Inhibitory effect on 33PO4 uptake into human NaPi-IIb-expressing CHO cells; format: cell-based; conditions: read-out: IC50 against 33PO4 uptake into human NaPi-IIb-expressing cells
T1 construct: expressed in transfected cells
T1 sequence (O95436 1-690): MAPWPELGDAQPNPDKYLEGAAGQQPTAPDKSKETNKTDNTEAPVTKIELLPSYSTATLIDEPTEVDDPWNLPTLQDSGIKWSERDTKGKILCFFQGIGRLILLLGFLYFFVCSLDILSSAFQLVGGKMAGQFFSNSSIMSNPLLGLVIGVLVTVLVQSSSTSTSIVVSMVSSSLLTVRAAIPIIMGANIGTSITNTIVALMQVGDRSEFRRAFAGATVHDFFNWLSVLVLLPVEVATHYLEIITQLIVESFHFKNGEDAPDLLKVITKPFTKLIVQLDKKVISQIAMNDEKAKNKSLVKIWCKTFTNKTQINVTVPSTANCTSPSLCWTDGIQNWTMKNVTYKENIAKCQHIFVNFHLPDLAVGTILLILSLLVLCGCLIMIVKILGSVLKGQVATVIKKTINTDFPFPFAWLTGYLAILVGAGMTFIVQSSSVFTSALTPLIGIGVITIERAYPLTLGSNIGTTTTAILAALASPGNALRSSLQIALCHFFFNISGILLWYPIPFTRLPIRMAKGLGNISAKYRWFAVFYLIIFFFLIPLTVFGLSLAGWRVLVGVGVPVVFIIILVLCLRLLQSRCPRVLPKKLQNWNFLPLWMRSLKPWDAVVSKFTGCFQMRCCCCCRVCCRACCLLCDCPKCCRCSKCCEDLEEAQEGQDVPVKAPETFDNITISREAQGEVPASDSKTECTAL
How it was run: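 Uptake of ³³PO4 was measured by scintillation counting after ice-cold buffer A washes. Cells were CHO stably expressing human NaPi-IIb, seeded overnight, and exposed to ³³PO4 in buffer A at room temperature.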

`CN1N(Cc2ccc(OCCCCCOC[C@H](O)CO)c(F)c2F)C(=O)C(C(=O)Nc2ccc(C(F)(F)F)cc2-c2ccc(C(F)(F)F)nc2)=C(O)C12CCCC2` [Example 388] and `CN1N(Cc2ccc(OCCCCCOC[C@H](O)CO)c(F)c2F)C(=O)C(C(=O)Nc2ccc(C(F)(F)F)cc2-c2cc(C(F)(F)F)ncn2)=C(O)C12CCCC2` [Example 394] are within 1.5-fold of each other in IC50: 6.9 µM for the first, 6.7 µM for the second.

Going from `CN1N(Cc2ccc(OCCCOC[C@H](O)CO)c(F)c2F)C(=O)C(C(=O)Nc2ccc(C(F)(F)F)cc2-c2cc(C(F)(F)F)ncn2)=C(O)C12CCC2` [Example 389] to `CN1N(Cc2ccc(OCCCCOC[C@H](O)CO)c(F)c2F)C(=O)C(C(=O)Nc2ccc(C(F)(F)F)cc2-c2cc(C(F)(F)F)ncn2)=C(O)C12CCC2` [Example 390], the IC50 falls from 24.6 µM to 7.8 µM (3.2-fold). The second is the more potent here.

`CN1N(Cc2ccc(OCCCCCOC[C@H](O)CO)c(F)c2F)C(=O)C(C(=O)Nc2ccc(C(F)(F)F)cc2-c2cc(C(F)(F)F)ncn2)=C(O)C12CCC2` [Example 391] and `CN1N(Cc2ccc(OCCCCOC[C@H](O)CO)c(F)c2F)C(=O)C(C(=O)Nc2ccc(C(F)(F)F)cc2-c2cc(C(F)(F)F)ncn2)=C(O)C12CCCC2` [Example 393] are within 1.5-fold of each other in IC50: 7 µM for the first, 8.1 µM for the second.

`CN1N(Cc2ccc(OCCCOC[C@H](O)CO)c(F)c2F)C(=O)C(C(=O)Nc2ccc(C(F)(F)F)cc2-c2cc(C(F)(F)F)ncn2)=C(O)C12CCCC2` [Example 392] and `CN1N(Cc2ccc(OCCCOCCO)c(F)c2F)C(=O)C(C(=O)Nc2ccc(C(F)(F)F)cc2-c2cc(C(F)(F)F)ncn2)=C(O)C12CCCC2` [Example 395] are within 1.5-fold of each other in IC50: 15.8 µM for the first, 15.2 µM for the second.

`CN1N(Cc2ccc(OCCCCOCCO)c(F)c2F)C(=O)C(C(=O)Nc2ccc(C(F)(F)F)cc2-c2cc(C(F)(F)F)ncn2)=C(O)C12CCCC2` [Example 396] and `CN1N(Cc2ccc(OCCCCCOCCO)c(F)c2F)C(=O)C(C(=O)Nc2ccc(C(F)(F)F)cc2-c2cc(C(F)(F)F)ncn2)=C(O)C12CCCC2` [Example 397] are within 1.5-fold of each other in IC50: 9.5 µM for the first, 8.6 µM for the second.

`CN1N(Cc2ccc(OCCCOCCCO)c(F)c2F)C(=O)C(C(=O)Nc2ccc(C(F)(F)F)cc2-c2cc(C(F)(F)F)ncn2)=C(O)C12CCCC2` [Example 398] and `CN1N(Cc2ccc(OCCCCOCCCO)c(F)c2F)C(=O)C(C(=O)Nc2ccc(C(F)(F)F)cc2-c2cc(C(F)(F)F)ncn2)=C(O)C12CCCC2` [Example 399] are within 1.5-fold of each other in IC50: 9.9 µM for the first, 7.8 µM for the second.

Going from `CN1N(Cc2ccc(OCCCCCOCCCO)c(F)c2F)C(=O)C(C(=O)Nc2ccc(C(F)(F)F)cc2-c2cc(C(F)(F)F)ncn2)=C(O)C12CCCC2` [Example 400] to `CN1N(Cc2ccc(OCCOCCNCC(O)CO)c(F)c2F)C(=O)C(C(=O)Nc2ccc(C(F)(F)F)cc2-c2cc(C(F)(F)F)ncn2)=C(O)C12CCCC2` (stereo not drawn) [Example 419, 7-[[4-[2-[2-(2,3-Dihydroxypropylamino)ethoxy]ethoxy]-2,3-difluorophenyl]methyl]-10-hydroxy-6-methyl-8-oxo-N-[4-(trifluoromethyl)-2-[6-(trifluoromethyl)pyrimidin-4-yl]phenyl]-6,7-diazaspiro[4.5]dec-9-ene-9-carboxamide], the IC50 rises from 9.2 µM to 24.8 µM (2.7-fold). The first is the more potent here.

First: COCCOCCOc1ccc(CN2C(=O)C(C(=O)Nc3ccc(C(F)(F)F)cc3-c3cc(C(F)(F)F)ncn3)=C(O)C3(CCC3)N2C)c(F)c1F [Example 401, 6-[[2,3-Difluoro-4-[2-(2-methoxyethoxy)ethoxy]phenyl]methyl]-9-hydroxy-5-methyl-7-oxo-N-[4-(trifluoromethyl)-2-[6-(trifluoromethyl)pyrimidin-4-yl]phenyl]-5,6-diazaspiro[3.5]non-8-ene-8-carboxamide]
Second: COCCN1CC(Oc2ccc(CN3C(=O)C(C(=O)Nc4ccc(C(F)(F)F)cc4-c4cc(C(F)(F)F)ncn4)=C(O)C4(CCC4)N3C)c(F)c2F)C1 [Example 406, 6-[[2,3-Difluoro-4-[1-(2-methoxyethyl)azetidin-3-yl]oxyphenyl]methyl]-9-hydroxy-5-methyl-7-oxo-N-[4-(trifluoromethyl)-2-[6-(trifluoromethyl)pyrimidin-4-yl]phenyl]-5,6-diazaspiro[3.5]non-8-ene-8-carboxamide]
The IC50 of the first is 1.6-fold lower: 14.5 µM for the first, 23.1 µM for the second. The first is the more potent here.

`CN(CCOc1ccc(CN2C(=O)C(C(=O)Nc3ccc(C(F)(F)F)cc3-c3cc(C(F)(F)F)ncn3)=C(O)C3(CCC3)N2C)c(F)c1F)C1COC1` [Example 402, 6-(2,3-Difluoro-4-(2-(methyl(oxetan-3-yl)amino)ethoxy)benzyl)-9-hydroxy-5-methyl-7-oxo-N-(4-(trifluoromethyl)-2-(6-(trifluoromethyl)pyrimidin-4-yl)phenyl)-5,6-diazaspiro[3.5]non-8-ene-8-carboxamide] and `CN(CCOc1ccc(CN2C(=O)C(C(=O)Nc3ccc(C(F)(F)F)cc3-c3cc(C(F)(F)F)ncn3)=C(O)C3(CCCC3)N2C)c(F)c1F)C1COC1` [Example 412, 7-(2,3-Difluoro-4-(2-(methyl(oxetan-3-yl)amino)ethoxy)benzyl)-10-hydroxy-6-methyl-8-oxo-N-(4-(trifluoromethyl)-2-(6-(trifluoromethyl)pyrimidin-4-yl)phenyl)-6,7-diazaspiro[4.5]dec-9-ene-9-carboxamide] are within 1.5-fold of each other in IC50: 12.8 µM for the first, 19 µM for the second.

Going from `CN1N(Cc2ccc(OC3COC3)c(F)c2F)C(=O)C(C(=O)Nc2ccc(C(F)(F)F)cc2-c2cc(C(F)(F)F)ncn2)=C(O)C12CCC2` [Example 403, 6-(2,3-Difluoro-4-(oxetan-3-yloxy)benzyl)-9-hydroxy-5-methyl-7-oxo-N-(4-(trifluoromethyl)-2-(6-(trifluoromethyl)pyrimidin-4-yl)phenyl)-5,6-diazaspiro[3.5]non-8-ene-8-carboxamide] to `CN1CCC(Oc2ccc(CN3C(=O)C(C(=O)Nc4ccc(C(F)(F)F)cc4-c4cc(C(F)(F)F)ncn4)=C(O)C4(CCC4)N3C)c(F)c2F)CC1` [Example 411], the IC50 rises from 6.3 µM to 12.8 µM (2-fold). The first is the more potent here.

First: COCCN1CCC[C@H]1COc1ccc(CN2C(=O)C(C(=O)Nc3ccc(C(F)(F)F)cc3-c3cc(C(F)(F)F)ncn3)=C(O)C3(CCC3)N2C)c(F)c1F [Example 404, 6-[[2,3-Difluoro-4-[[(2S)-1-(2-methoxyethyl)pyrrolidin-2-yl]methoxy]phenyl]methyl]-9-hydroxy-5-methyl-7-oxo-N-[4-(trifluoromethyl)-2-[6-(trifluoromethyl)pyrimidin-4-yl]phenyl]-5,6-diazaspiro[3.5]non-8-ene-8-carboxamide]
Second: COCCN1CC[C@@H](Oc2ccc(CN3C(=O)C(C(=O)Nc4ccc(C(F)(F)F)cc4-c4cc(C(F)(F)F)ncn4)=C(O)C4(CCC4)N3C)c(F)c2F)C1 [Example 405, 6-[[2,3-Difluoro-4-[(3R)-1-(2-methoxyethyl)pyrrolidin-3-yl]oxyphenyl]methyl]-9-hydroxy-5-methyl-7-oxo-N-[4-(trifluoromethyl)-2-[6-(trifluoromethyl)pyrimidin-4-yl]phenyl]-5,6-diazaspiro[3.5]non-8-ene-8-carboxamide]
The IC50 of the first is 2.7-fold lower: 10.1 µM for the first, 27.7 µM for the second. The first is the more potent here.

Compared with `CN1N(Cc2ccc(OC(C)(C)CN3CCOCC3)c(F)c2F)C(=O)C(C(=O)Nc2ccc(C(F)(F)F)cc2-c2cc(C(F)(F)F)ncn2)=C(O)C12CCC2` [Example 407, 6-[[2,3-Difluoro-4-(2-methyl-1-morpholin-4-ylpropan-2-yl)oxyphenyl]methyl]-9-hydroxy-5-methyl-7-oxo-N-[4-(trifluoromethyl)-2-[6-(trifluoromethyl)pyrimidin-4-yl]phenyl]-5,6-diazaspiro[3.5]non-8-ene-8-carboxamide], `CC(CN1CCOCC1)Oc1ccc(CN2C(=O)C(C(=O)Nc3ccc(C(F)(F)F)cc3-c3cc(C(F)(F)F)ncn3)=C(O)C3(CCC3)N2C)c(F)c1F` (stereo not drawn) [Example 408] is 2.1-fold higher in IC50: 6.9 µM for the first, 14.6 µM for the second. The first is the more potent here.

First: CN1N(Cc2ccc(OCC3CCCO3)c(F)c2F)C(=O)C(C(=O)Nc2ccc(C(F)(F)F)cc2-c2cc(C(F)(F)F)ncn2)=C(O)C12CCCC2 (stereo not drawn) [Example 413]
Second: COCCN(C)CCNc1ccc(CN2C(=O)C(C(=O)Nc3ccc(C(F)(F)F)cc3-c3cc(C(F)(F)F)ncn3)=C(O)C3(CCCC3)N2C)c(F)c1F [Example 417, 7-(2,3-Difluoro-4-((2-((2-methoxyethyl)(methyl)amino)ethyl)amino)benzyl)-10-hydroxy-6-methyl-8-oxo-N-(4-(trifluoromethyl)-2-(6-(trifluoromethyl)pyrimidin-4-yl)phenyl)-6,7-diazaspiro[4.5]dec-9-ene-9-carboxamide]
The IC50 of the first is 5.1-fold higher: 11.3 µM for the first, 2.2 µM for the second.

`CN(CCOCCOc1ccc(CN2C(=O)C(C(=O)Nc3ccc(C(F)(F)F)cc3-c3cc(C(F)(F)F)ncn3)=C(O)C3(CCCC3)N2C)c(F)c1F)C[C@H](O)[C@@H](O)[C@H](O)[C@H](O)CO` [Example 420, 7-[[2,3-Difluoro-4-[2-[2-[methyl-[(2S,3R,4R,5R)-2,3,4,5,6-pentahydroxyhexyl]amino]ethoxy]ethoxy]phenyl]methyl]-10-hydroxy-6-methyl-8-oxo-N-[4-(trifluoromethyl)-2-[6-(trifluoromethyl)pyrimidin-4-yl]phenyl]-6,7-diazaspiro[4.5]dec-9-ene-9-carboxamide] showed an IC50 of 18.6 µM.
